Patent publication US11766467B2, “Methods of treating wounds using cathepsin K inhibitors” (University of Wyoming, priority 2017, dated 2023)

Columns and labels:
[1] = test system: full-thickness wounds in diabetic pigs; assay: porcine diabetic (streptozotocin) wound healing model, full-thickness wounds, intradermal injections; type: in vivo; conditions: for wound closure: both the higher (300 ng/mm^2) and lower (30 ng/mm^2) doses; for wound closure / wound healing (in words): diabetic pigs
Method: Odanacatib is a potent and selective inhibitor of cathepsin K and can be administered to promote wound healing in diabetic pigs. Pigs (3-4 months old) were rendered diabetic with intravenous injection of streptozotocin (75 mg/Kg). Four weeks following streptozotocin injections 6-10 full-thickness (one-inch square, ˜[…] thickness) wounds were created in two columns on each side of the dorsal thoracolumbar midline. […] Wounds were photographed prior to treatment and analyzed for wound closure rates.
Data are expressed as mean±SEM (n=8 for vehicle and 6 each for odanacatib treatment). […] Because some values are missing as we had euthanized one pig from each group on day 14 for molecular analysis, the data were analyzed by fitting a mixed model, rather than by repeated measures ANOVA. […]

[2] = test system: excisional skin wounds in genetically diabetic db/db mice; assay: excisional skin wound healing in genetically diabetic db/db mice, topical inhibitor; type: in vivo; conditions: treated along the circumference of the wound
Method: FIG. 5 illustrates the effect of a topically delivered pharmacological inhibitor of cathepsin K on wound healing in genetically diabetic mice. Excisional skin wounds were created in genetically diabetic db/db mice and the wounds were treated along the circumference of the wounds with cathepsin K inhibitor II or vehicle. Wound healing was evaluated by measuring the wound closure rate and histomorphometric analysis. […] In contrast, wounds in the vehicle treated group remain unhealed during this time period. Heterozygous (db/db^+/−) mice were used as controls in these studies.

[3] = test system: cultured human fibroblasts; assay: in vitro monolayer wound-healing assay (cell migration under high glucose); type: cell-based; conditions: high glucose 25 mM, 100 ng/ml inhibitor, 5 μg/ml hydroxyurea, 72 h after wounding
Method: Referring now to FIGS. 1A-1B, the in vitro monolayer wound-healing assay mimics cell migration during wound healing. An in vitro monolayer wound-healing assay in cultured human fibroblasts was used to test whether pharmacological inhibition of cathepsin K affected cell migration under high-glucose (25 mM) conditions. Mannitol was included to control for osmotic pressure and hydroxyurea to eliminate the potential effects of cell proliferation.
Referring again to FIGS. 1A-1B, inhibition of cathepsin reverses the inhibitory effect of high glucose (HG) on cell migration in a monolayer wound-healing assay. Confluent human fibroblasts were serum starved and subjected to a media containing low (5 mM, LG) or high (25 mM, HG) glucose. The cell monolayer was wounded with a linear scratch using a sterile pipette tip and treated with 100 ng/ml of cathepsin K inhibitor-II in the presence of 5 μg/ml hydroxyurea. At 0 time (upper left panel) and 72 h (lower left panel) after wounding, the cells were photographed using an inverted microscope equipped with a digital camera. Scale bar=600 μm. FIG. 1A. Representative phase-contrast images for each treatment group. FIG. 1B. Bar graph represents the percentage wound closure 72 h after wounding as measured using the NIH Image J software and represented as mean±SEM, n=6, *p<0.01 compared to LG; **p<0.05 compared to LG.

## CC(C)(F)C[C@H](N[C@@H](c1ccc(-c2ccc(S(C)(=O)=O)cc2)cc1)C(F)(F)F)C(=O)NC1(C#N)CC1 [odanacatib]
[1]; day 21 post-wounding
  wound closure: ~93%

## CC(C)C[C@H](NC(=O)OCc1ccccc1)C(=O)NNC(=O)NNC(=O)[C@H](CC(C)C)NC(=O)[C@H](Cc1ccccc1)NC(=O)OC(C)(C)C [CatKI-II, 1-(N-Benzyloxycarbonyl-leucyl)-5-(N-Boc-phenylalanyl-leucyl) carbohydrazide]
[1]; Table 1, D 3, 30 vs. 300 ng/mm^2
  Tukey's multiple comparisons test, Summary: ns
[1]; Table 1, D 3, Vehicle vs. 300 ng/mm^2
  Tukey's multiple comparisons test, Summary: ns
[1]; Table 1, D 7, 30 vs. 300 ng/mm^2
  Tukey's multiple comparisons test, Summary: ns
[1]; Table 1, D 7, Vehicle vs. 300 ng/mm^2
  Tukey's multiple comparisons test, Summary: ns
[1]; Table 1, D 7, Vehicle vs. 30 μg/mm^2
  Tukey's multiple comparisons test, Summary: ns
[1]; Table 1, D 14, Vehicle vs. 300 ng/mm^2
  Tukey's multiple comparisons test, Summary: ns
[1]; Table 1, D 21, Vehicle vs. 300 ng/mm^2
  Tukey's multiple comparisons test, Summary: ns
[1]; Table 2, D 3, 30 vs. 300 ng/mm^2
  Tukey's multiple comparisons test, Summary: ns
[1]; Table 2, D 3, Vehicle vs. 300 ng/mm^2
  Tukey's multiple comparisons test, Summary: ns
[1]; Table 2, D 7, 30 vs. 300 ng/mm^2
  Tukey's multiple comparisons test, Summary: ns
[1]; Table 2, D 7, Vehicle vs. 300 ng/mm^2
  Tukey's multiple comparisons test, Summary: ns
[1]; Table 2, D 7, Vehicle vs. 30 μg/mm^2
  Tukey's multiple comparisons test, Summary: ns
[1]; Table 2, D 14, Vehicle vs. 300 ng/mm^2
  Tukey's multiple comparisons test, Summary: ns
[1]; Table 2, D 21, Vehicle vs. 300 ng/mm^2
  Tukey's multiple comparisons test, Summary: ns
[1]; day 21 post-wounding
  wound closure: ~93%
[1]
  wound closure / wound healing (in words): facilitate wound closure
[1]; listed as Cathepsin K inhibitor II
  wound closure / wound healing (in words): promotes wound healing
[1]; lower dose 30 ng/mm^2/wound, day 21 post-wounding
  wound area: improvement in wound healing: statistically significant improvement in wound healing compared to both vehicle and the higher dose
[2]; day 12
  wound resolution: significant resolution of wound
[2]; day 15
  wound resolution: almost complete resolution
[3]
  fibroblast migration / monolayer wound closure: increased migration beyond that observed in the cells treated with a low-glucose media
